How the values were obtained:
hMCH-1R = hMCH-1R (Homo sapiens (Human), UniProt Q99705); assay: MCH-1 receptor binding test (125I-MCH binding to hMCH-1R transfected cell membranes); details: competition with 100 pM 125I-MCH, membranes of CHO/Galpha16 cells stably transfected with hMCH-1R
human hepatocytes = assay: Metabolic degradation in human hepatocytes (intrinsic clearance); type: in vitro ADME; details: human hepatocyte suspension, 1 μM test compound, 5% human serum, 6 h
Description: Determination of Metabolic Degradation in Human Hepatocytes for Compounds of the Invention
The metabolic degradation of the test compound is determined in a hepatocyte suspension. Hepatocytes (typically cryopreserved) are incubated in an appropriate buffer system (e.g. Dulbecco's modified eagle medium plus 3.5 μg glucagon/500 mL, 2.5 mg insulin/500 mL and 3.75 mg/500 mL hydrocortison) containing 5% human serum.
Following a (typically) 30 min preincubation in an incubator (37° C., 10% CO2), 5 μl of test compound solution (80 μM; from 2 mM in DMSO stock solution diluted 1:25 with medium) are added into 395 μl hepatocyte suspension (cell density in the range 0.25-5 Mio cells/mL, typically 1 Mio cells/mL; final concentration of test compound 1 μM, final DMSO concentration 0.05%). The cells are incubated for six hours (incubator, orbital shaker) and samples (25 μl) are taken at 0, 0.5, 1, 2, 4 and 6 hours. Samples are transferred into acetonitrile and pelleted by centrifugation (5 min). The supernatant is transferred to a new 96-deepwell plate, evaporated under nitrogen and resuspended.
Decline of parent compound is analyzed by HPLC-MS/MS.
CLint is calculated as follows CL_[…]=Dose/AUC=(CO/CD)/(AUD+clast/k)×1000/60. C0: initial concentration in the incubation [μM], CD: cell density of vital cells [10e6 cells/mL], AUD: area under the data [μM×h], clast: concentration of last data point [μM], k: slope of the regression line for parent decline [h−1].

Chain of hMCH-1R (Q99705 whole entry): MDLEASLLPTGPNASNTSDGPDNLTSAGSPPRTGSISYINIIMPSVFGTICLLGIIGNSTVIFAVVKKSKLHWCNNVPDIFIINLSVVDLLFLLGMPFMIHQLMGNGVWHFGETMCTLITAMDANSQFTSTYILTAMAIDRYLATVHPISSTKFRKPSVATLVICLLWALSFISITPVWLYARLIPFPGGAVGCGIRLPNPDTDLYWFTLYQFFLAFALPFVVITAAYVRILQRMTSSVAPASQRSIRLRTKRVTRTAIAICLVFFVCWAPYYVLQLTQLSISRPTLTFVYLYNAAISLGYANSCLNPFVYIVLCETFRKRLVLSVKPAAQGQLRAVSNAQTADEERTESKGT

SMILES	IC50 (hMCH-1R)	CLint (human hepatocytes)
Cc1cc(CN(C)C)ccc1C(=O)Cn1ccc(OCc2ccccc2)cc1=O [Example 1.8, 4-Benzyloxy-1-[2-(4-dimethylaminomethyl-2-methyl-phenyl)-2-oxo-ethyl]-1H-pyridin-2-one]	17 nM	3.9 μL/min/10e6 cells
Cc1cc(CN(C)C)ccc1C(=O)Cn1ccc(OCc2ccc(Cl)cn2)cc1=O [Example 3.9, 4-(5-Chloro-pyridin-2-ylmethoxy)-1-[2-(4-dimethylaminomethyl-2-methyl-phenyl)-2-oxo-ethyl]-1H-pyridin-2-one]	32 nM	13.8 μL/min/10e6 cells
Cc1cc(CN(C)C)ccc1C(=O)Cn1ccc(OCc2ccc(Br)cn2)cc1=O [Example 4.1, 4-(5-Bromo-pyridin-2-ylmethoxy)-1-[2-(4-dimethylaminomethyl-2-methyl-phenyl)-2-oxo-ethyl]-1H-pyridin-2-one]	17 nM	20.7 μL/min/10e6 cells
Cc1cc(CN(C)C)ccc1C(=O)Cn1ncc(OCc2ccccc2)cc1=O [Example 5.2, 5-Benzyloxy-2-[2-(4-dimethylaminomethyl-2-methyl-phenyl)-2-oxo-ethyl]-2H-pyridazin-3-one]	9 nM	4.8 μL/min/10e6 cells
Cc1cc(CN(C)C)ccc1C(=O)Cn1ncc(OCc2ccc(F)cn2)cc1=O [Example 6.5]	50 nM	1.7 μL/min/10e6 cells
Cc1cc(CN(C)C)ccc1C(=O)Cn1ncc(OCc2ccc(Br)cn2)cc1=O [Example 8.3, 5-(5-Bromo-pyridin-2-ylmethoxy)-2-[2-(4-dimethylaminomethyl-2-methyl-phenyl)-2-oxo-ethyl]-2H-pyridazin-3-one]	16 nM	11.5 μL/min/10e6 cells
COc1ccc(COc2cnn(CC(=O)c3ccc(CN(C)C)cc3C)c(=O)c2)nc1 [Example 9.1, 2-[2-(4-Dimethylaminomethyl-2-methyl-phenyl)-2-oxo-ethyl]-5-(5-methoxy-pyridin-2-ylmethoxy)-2H-pyridazin-3-one]	28 nM	3.3 μL/min/10e6 cells
COc1ccc(COc2cnn(CC(=O)c3ccc(CN(C)C)cc3)c(=O)c2)nc1 [Example 9.1c, 2-[2-(4-Dimethylaminomethyl-phenyl)-2-oxo-ethyl]-5-(5-methoxy-pyridin-2-ylmethoxy)-2H-pyridazin-3-one, reference compound]		27 μL/min/10e6 cells
CN(C)Cc1ccc(C(=O)Cn2ccc(OCc3ccc(Cl)cn3)cc2=O)cc1 [Example 9.2 in WO2009/103478, reference compound]		68.8 μL/min/10e6 cells
CN(C)Cc1ccc(C(=O)Cn2ccc(OCc3ccc(Br)cn3)cc2=O)cc1 [Example 11.2 in WO2009/103478, reference compound]		66.1 μL/min/10e6 cells
CN(C)Cc1ccc(C(=O)Cn2ncc(OCc3ccc(Br)cn3)cc2=O)cc1 [Example 12.2 in WO2009/103478, reference compound]		57.6 μL/min/10e6 cells
CN(C)Cc1ccc(C(=O)Cn2ccc(OCc3ccccc3)cc2=O)cc1 [Example 29.8 in WO2008/22979, reference compound]		24.3 μL/min/10e6 cells
CN(C)Cc1ccc(C(=O)Cn2ncc(OCc3ccccc3)cc2=O)cc1 [Example 32.7 in WO2008/22979, reference compound]		16.8 μL/min/10e6 cells
CN(C)Cc1ccc(C(=O)Cn2ncc(OCc3ccc(F)cn3)cc2=O)cc1 [Example 33.5 in WO2008/22979, reference compound]		10.0 μL/min/10e6 cells
